Laboratory results reported in US11779602B2, “Methods of use for CAR T cells” (ENDOCYTE, INC., priority 2018, dated 2023).

Assays:
[1] = test system: MDA-MB-231 tumors; test: EC17/E2-CAR T-cell therapy in NSG mice with and without MDA-MB-231 tumors; assay type: in vivo
Description: MDA-MB-231 tumor cells were grown in folate-deficient RPMI 1640 with 5-10% FBS at 37° C. in a 5% CO2 humidified atmosphere. MDA-MB-231 tumor cells were inoculated subcutaneously at 2.5×10^6 cells per animal. Only […] mice were inoculated and the remaining 22 mice were kept tumor-free.
EGFRt-sorted anti-FITC E2 scFv-CAR T cells were frozen in a T-cell freezing medium. Vials of frozen CAR-T cells were immediately stored at −80° C. The CAR-T cells were quickly thawed at 37° C., washed twice with PBS, and used for animal injection at 10 million viable EGFRt+ E2 CAR-T cells (CD4/CD8 at ˜1:1) per animal. A small aliquot was taken on the day infusion for flow cytometric analysis of E2-CAR T-cell phenotypes.
Mouse blood samples were processed for plasma and stored at −20° C. until use. A human TH1 cytokine panel (Biolegend, Cat. No. 740009) and a human hematopoietic stem cell cytokine panel (Biolegend, Cat. No. 740610) was used to detect human cytokines in the mouse blood. A mouse 13-plex inflammatory cytokine panel (Biolengend, No. 740150) was used to detect mouse cytokines. All analyses were performed per the manufacturer's instructions.
Whole blood cell analysis: Plasma was removed from predetermined volumes of whole EDTA treated blood and RBCs were lysed with RBC lysis solution. […] Determination of the concentration of CAR T cells in each blood sample was calculated according to Invitrogen's instructions. CAR T cells were identified as human CD3ε+ EGFRt+ events and easily distinguished and counted using the Kaluza™ flow cytometry software. The number of CAR T cells in the circulation of each infused mouse was then represented on the graphs as the total number of CAR T cells per 100 μL of whole blood analyzed. Statistical significance was determined by utilizing an unpaired, two-tailed, students t-test with significance set at p<0.05. […]

[2] = test system: MDA-MB-231 tumors; test: Dietary folate effect on antitumor activity and CRS, MDA-MB-231 tumors in NSG mice; assay type: in vivo
Description: To study the effect of high dietary folate (FIGS. 63A-K), two sets of NSG mice were placed on either a FA-replete diet (4 mg/kg, Envigo, Indianapolis, Ind.) or a FA-deficient diet (TestDiet, St. Louis, Mo.) upon arrival. On day 0, both sets of the mice received ˜10 million of the same “clinical facsimile” CAR-T cells followed by no EC17 or EC17 SIW at 500 nmol/kg starting on day 3. On the first day of EC17 administration, MDA-MB-231 tumors size averaged around ˜549±184 mm^3 (280-918 mm^3) in FA-replete mice, and ˜559±165 mm^3 (356-961 mm^3) in FA-deficient mice.
Previously, it was shown that administration of FA or a FA ligand helped reduce the severity of CRS in MDA-MB-231 tumor-bearing mice. To test the long-term effect of dietary folate, mice were maintained on defined diets for ˜73 days and used when their tumors reached ˜549±184 mm^3 (280-918 mm^3) in FA-replete mice, and ˜559±165 mm^3 (356-961 mm^3) in FA-deficient mice (FIGS. 63A-K).
Since we started MDA-MB-231 tumors at larger sizes than previous studies, tumor regression due to alloreactivity at this 10-million “clinical facsimile” CAR-T cell dose was not apparent (FIGS. 63A and 63C).
Using anti-human EGFR (clone Hu1) to identify MDA-MB-231 cancer cells within mouse tumor masses after an enzymatic digestion, we analyzed FRα protein expression (clone LK26) in three tumors recovered from mice on FA-replete diet that experienced a relapse despite continuing EC17 treatment. By flow cytometric detection, EGFR+ cancer cells isolated from the smallest tumor (21 mg) expressed FRα, while EGFR+ cancer cells isolated from the two larger tumors (90 mg and 363 mg) had completely lost their FRα expression (FIGS. 63I-K). Using the quantitative radioligand binding assay with ^3H-FA, the loss of functional FR levels on tissue homogenates obtained from these tumors was confirmed (˜2.1 pmol/mg binding potential versus ˜103 pmol/mg in tumors from untreated animals). Therefore, FA-deficiency may lead to enhanced activity and CRS toxicity; while non-physiological FA intake prevents CRS and continuous consumption may lead to reduced activity.

Compound: NC1=NC2N=CC(CNc3ccc(C(=O)N[C@@H](CCC(=O)NCCNC(=S)Nc4ccc(-c5c6ccc(=O)cc-6oc6cc(O)ccc56)c(C(=O)O)c4)C(=O)O)cc3)=NC2C(=O)N1 (some centres unmarked) [EC17, FA-(γ)-ethylenediamine-FITC]
- IFN-γ production, tumor-bearing vs tumor-free mice ([1]; 10 million E2 CAR-T cells, EC17 500 nmol/kg days 2 and 10, plasma 20 hours after second dose): 23 fold
- increase in circulating E2 CAR T cells per 100 uL whole blood vs cohorts without EC17 ([1]; cohorts which received EC17 stimulation): more than 10 fold
- CAR-T cell expansion by FACS in tumor-free mice ([1]; post EC17 SIW500×2 doses): no detectable CAR-T cell expansion
- cytokine production (IL2, IFN-γ, IL-10) in tumor-bearing mice ([1]; with vs without EC17 dose): EC17-dependent
- CD3ε+EGFRt+ CAR-T cells in blood ([2]; FA-deficient diet, day 52): 1.6-20.4×10^4 per 100 μL blood
- CRS grade ([2]; FA-deficient diet, subsequent EC17 doses): 2-3 grade
- CD3ε+EGFRt+ CAR-T cells in blood ([2]; FA-replete diet, day 59): 0.027-4.3×10^3 per 100 μL blood
- CRS ([2]; FA-replete diet, ~10 million CAR-T cells, EC17 500 nmol/kg weekly): did not show symptoms of CRS
